Experimental data reported in patent US20130210167A1, “IMMUNOASSAY FOR PYRROLIDINOPHENONES” (RANDOX LABORATORIES LIMITED, priority 2012, published 2013).
Structures can show the parent of a compound that is named as a salt.

Tested on: polyclonal antibody raised to Immunogen IV
Assay: Competitive biochip immunoassay of pyrrolidinophenones and potential cross-reactants (Evidence Investigator)
Format: binding, sheep
Details: not given

Q: For `Cc1ccccc1-n1c(C)nc2ccccc2c1=O` [Methaqualone], which “% Cross-reactivity” value is on record?
A: Its value is less than 1%.

Q: (−)-11-nor-9-Carboxy-delta9-THC was tested. Which “% Cross-reactivity” value did it give?
A: Its value is less than 1%.

Q: `COc1ccc2c(c1)[C@]13CCCC[C@@H]1[C@H](C2)N(C)CC3` [Dextromethorphan hydrobromide monohydrate] was tested. Which “% Cross-reactivity” value did it give?
A: The value was less than 1%.

Q: With `CN1C(=O)CN=C(c2ccccc2F)c2cc(N)ccc21` [7-NH Flunitrazepam] as the compound, how does the “% Cross-reactivity” value read?
A: Its value is less than 1%.

Q: Which “% Cross-reactivity” value does the source give for `CCN(CC)C(C)C(=O)c1ccccc1` (stereo not shown) [Diethylpropion HCl] here?
A: Its value is less than 1%.

Q: With `CCC(NC)C(=O)c1ccc2c(c1)OCO2.Cl` (stereo not shown) [Butylone HCl] as the compound, how does the “% Cross-reactivity” value read?
A: Its value is 11.4%.

Q: And the “binding of antibodies of the invention (in words)” value?
A: Its value is “able to bind”.

Q: Which “% Cross-reactivity” value does the source give for `CCCCC(C(=O)c1ccc(C)cc1)N1CCCC1.Cl` (racemic) [(RS)-1-(4-Methylphenyl)-2-(pyrrolidin-1-yl)hexanone HCl] here?
A: Its value is 48.4%.

Q: With `CN[C@H]1CC[C@@H](c2ccc(Cl)c(Cl)c2)c2ccccc21` [Sertraline HCl] as the compound, how does the “% Cross-reactivity” value read?
A: The value was less than 1%.

Q: `CCC(C(=O)c1ccc2c(c1)OCO2)N1CCCC1` (racemic) [(RS)-1-(Benzo[d][1,3]dioxol-5-yl)-2-(pyrrolidin-1-yl)butanone HCl] was tested. Which “% Cross-Reactivity” value did it give?
A: The value was 192%.

Q: `CC(NC(C)(C)C)C(=O)c1cccc(Cl)c1` (stereo not shown) [Bupropion HCl] was tested. Which “% Cross-reactivity” value did it give?
A: Its value is less than 1%.

Q: With `Cc1ccc(C(=O)C(C)N)cc1.Cl` (stereo not shown) [Nor-mephedrone HCl] as the compound, how does the “% Cross-reactivity” value read?
A: Its value is less than 1%.

Q: Which “% Cross-reactivity” value does the source give for `CNCCC=C1c2ccccc2CCc2ccccc21` [Nortriptyline HCl] here?
A: Its value is less than 1%.

Q: `CN1C(=O)CC[C@H]1c1cccnc1` [(−)-Cotinine] was tested. Which “% Cross-reactivity” value did it give?
A: Its value is less than 1%.

Q: `CC(C(=O)c1ccc2c(c1)OCO2)N1CCCC1.Cl` (racemic) [(RS)-1-(Benzo[d][1,3]dioxol-5-yl)-2-(pyrrolidin-1-yl)propanone HCl] was tested. Which “% Cross-Reactivity” value did it give?
A: Its value is 12%.

Q: `CCCC(NC)C(=O)c1ccccc1.Cl` (stereo not shown) [Pentedrone HCl] was tested. Which “% Cross-reactivity” value did it give?
A: Its value is less than 1%.

Q: `CNCCCC1(c2ccc(F)cc2)OCc2cc(C#N)ccc21` (stereo not shown) [Norescitalopram] was tested. Which “% Cross-reactivity” value did it give?
A: Its value is less than 1%.

Q: Prolatine was tested. Which “% Cross-reactivity” value did it give?
A: Its value is less than 1%.

Q: Which “% Cross-reactivity” value does the source give for `CCO[C@@H]1O[C@H](C(=O)O)[C@@H](O)[C@H](O)[C@H]1O` [Ethyl-glucuronide] here?
A: The value was less than 1%.

Q: For `C[C@H](N)Cc1ccccc1` [D-Amphetamine], which “% Cross-Reactivity” value is on record?
A: The value was less than 1%.

Q: How did the “% Cross-reactivity” value turn out when `CC(=O)Oc1ccc2c3c1O[C@H]1[C@@H](OC(C)=O)C=C[C@H]4[C@@H](C2)N(C)CC[C@@]341` [Heroin] was run?
A: Its value is less than 1%.

Q: `CNC(C)C(=O)c1ccc2c(c1)OCO2` (stereo not shown) [Methylone HCl] was tested. Which “% Cross-reactivity” value did it give?
A: Its value is less than 1%.

Q: Which “% Cross-reactivity” value does the source give for `COC(=O)C(c1ccccc1)C1CCCCN1` (stereo not shown) [Methylphenidate HCl] here?
A: Its value is less than 1%.

Q: For `CN1CCCC1c1cccnc1` (single isomer, unassigned; (-)) [(−)-Nicotine], which “% Cross-reactivity” value is on record?
A: The value was less than 1%.

Q: For `CN1CCN(Cc2ccccc2)CC1.Cl.O` [1-Benzyl-4-methylpiperazine HCl monohydrate], which “% Cross-reactivity” value is on record?
A: The value was less than 1%.

Q: Which “% Cross-Reactivity” value does the source give for `CN[C@@H](C)[C@@H](O)c1ccccc1.Cl` [(+)-Pseudoephedrine HCl] here?
A: Its value is less than 1%.

Q: `Cl.O=c1n(CCCN2CCN(c3cccc(Cl)c3)CC2)nc2ccccn12` [Trazadone HCl] was tested. Which “% Cross-reactivity” value did it give?
A: The value was less than 1%.

Q: How did the “% Cross-reactivity” value turn out when `Cl.NC1(c2ccccc2Cl)CCCCC1=O` (racemic) [(±)-Norketamine HCl] was run?
A: Its value is less than 1%.

Q: Which “% Cross-reactivity” value does the source give for `CCC(=O)C(CC(C)N(C)C)(c1ccccc1)c1ccccc1` (stereo not shown) [Methadone] here?
A: Its value is less than 1%.

Q: For `Cc1ccc(-c2nc3ccc(C)cn3c2CC(=O)N(C)C)cc1` [Zolpidem tartrate], which “% Cross-reactivity” value is on record?
A: The value was less than 1%.

Q: How did the “% Cross-reactivity” value turn out when `Oc1ccccc1O` [1,2 Dihydroxybenzene (Catechol), 1,2 Dihydroxybenzene] was run?
A: Its value is less than 1%.

Q: How did the “% Cross-reactivity” value turn out when `CCCC(C(=O)c1ccc(C)cc1)N1CCCC1` (racemic) [Pyrovalerone HCl, (RS)-1-(4-methylphenyl)-2-(1-pyrrolidinyl)pentan-1-one] was run?
A: The value was 44.4%.

Q: Which “% Cross-Reactivity” value does the source give for `COC(=O)[C@@H]1C[C@H](OC(C)=O)C(=O)[C@H]2[C@@]1(C)CC[C@H]1C(=O)O[C@H](c3ccoc3)C[C@]21C` [Salvinorin A] here?
A: Its value is less than 1%.

Q: With `CCC(=O)OC(Cc1ccccc1)(c1ccccc1)C(C)CNC.O=C(O)/C=C\C(=O)O` (single isomer, unassigned; (+)) [(+)-Norpropoxyphene maleate] as the compound, how does the “% Cross-reactivity” value read?
A: Its value is less than 1%.

Q: For `CNC(C)C(=O)c1ccc(C)cc1` (stereo not shown) [Mephedrone HCl], which “% Cross-Reactivity” value is on record?
A: Its value is less than 1%.

Q: `CC(N)Cc1ccc2c(c1)OCO2` (racemic) [(RS)-1-(benzo[d][1,3]dioxol-5-yl)propan-2-amine] was tested. Which “% Cross-Reactivity” value did it give?
A: The value was less than 1%.

Q: Which results are given for `CCCC(C(=O)c1ccc2c(c1)OCO2)N1CCCC1.Cl` (racemic) [(RS)-1-(Benzo[d][1,3]dioxol-5-yl)-2-(pyrrolidin-1-yl)pentanone HCl]?
A: % Cross-Reactivity: 100%; % Cross-reactivity: 100%

Q: With `c1ccc(CN2CCNCC2)cc1` [1-Benzylpiperazine] as the compound, how does the “% Cross-Reactivity” value read?
A: The value was less than 1%.

Q: How did the “% Cross-reactivity” value turn out when `CNC(C)C(=O)c1ccc(F)cc1.Cl` (stereo not shown) [Flephedrone HCl] was run?
A: The value was less than 1%.

Q: Which “% Cross-reactivity” value does the source give for `CCN(CC)C(=O)[C@@H]1C=C2c3cccc4[nH]cc(c34)C[C@H]2N(C)C1` [LSD] here?
A: Its value is less than 1%.

Q: Which “% Cross-Reactivity” value does the source give for `CNC(C)Cc1ccc2c(c1)OCO2` (racemic) [(RS)-1-(Benzo[d][1,3]dioxol-5-yl)-N-methylpropan-2-amine] here?
A: The value was less than 1%.

Q: `Cl.c1ccc(C2(N3CCCCC3)CCCCC2)cc1` [1-(1-phenylcyclohexyl)piperidine) HCl] was tested. Which “% Cross-reactivity” value did it give?
A: The value was less than 1%.

Q: `O=C(O)c1ccccc1O` [Salicylic acid] was tested. Which “% Cross-reactivity” value did it give?
A: The value was less than 1%.

Q: With `CCOC(=O)C1(c2ccccc2)CCNCC1` [Normeperidine] as the compound, how does the “% Cross-reactivity” value read?
A: The value was less than 1%.

Q: Which “% Cross-Reactivity” value does the source give for `CCCCCn1cc(C(=O)c2cccc3ccccc23)c2ccccc21` [JWH-018] here?
A: The value was less than 1%.

Q: `CNCCC(Oc1ccc(C(F)(F)F)cc1)c1ccccc1` (stereo not shown) [Fluoxetine HCl] was tested. Which “% Cross-reactivity” value did it give?
A: The value was less than 1%.

Q: `CCN(C(C)=O)c1cccc(-c2ccnc3c(C#N)cnn23)c1` [Zaleplon] was tested. Which “% Cross-reactivity” value did it give?
A: The value was less than 1%.

Q: How did the “% Cross-reactivity” value turn out when (−)-Delta9-THC was run?
A: Its value is less than 1%.

Q: For `COc1ccc2c3c1O[C@H]1C(=O)CC[C@@]4(O)[C@@H](C2)N(C)CC[C@]314` [Oxycodone], which “% Cross-reactivity” value is on record?
A: Its value is less than 1%.

Q: With `COc1cccc(C2(O)CCCCC2CN(C)C)c1` (stereo not shown) [Tramadol HCl] as the compound, how does the “% Cross-reactivity” value read?
A: The value was less than 1%.

Q: With `CC(=O)Nc1ccc(O)cc1` [Acetaminophen] as the compound, how does the “% Cross-reactivity” value read?
A: Its value is less than 1%.

Q: How did the “% Cross-reactivity” value turn out when `CCCC(C)(COC(N)=O)COC(N)=O` [Meprobamate] was run?
A: The value was less than 1%.

Q: `NCCc1ccccc1.O=S(=O)(O)O` [Phenethylamine sulphate] was tested. Which “% Cross-reactivity” value did it give?
A: The value was less than 1%.

Q: With `COc1ccc2c3c1O[C@H]1C(=O)CC[C@H]4[C@@H](C2)N(C)CC[C@]314` [Hydrocodone] as the compound, how does the “% Cross-reactivity” value read?
A: Its value is less than 1%.

Q: Which “% Cross-Reactivity” value does the source give for `CCCC(C(=O)c1ccc2ccccc2c1)N1CCCC1.Cl` (racemic) [(RS)-1-(2-Naphthyl)-2-(pyrrolidin-l-yl)pentanone HCl] here?
A: Its value is 44%.

Q: How did the “% Cross-Reactivity” value turn out when `CCC(C(=O)c1ccc(C)cc1)N1CCCC1.Cl` (racemic) [(RS)-1-(4-Methylphenyl)-2-(pyrrolidin-l-yl)butanone HCl] was run?
A: Its value is 34%.

Q: Dihydroxymephedrone HCl was tested. Which “% Cross-reactivity” value did it give?
A: Its value is less than 1%.

Q: With `COc1cc(CC(C)N)cc(OC)c1OC.Cl` (racemic) [(+/−)-3,4,5-Trimethoxyamphetamine hydrochloride] as the compound, how does the “% Cross-reactivity” value read?
A: Its value is less than 1%.

Q: How did the “% Cross-reactivity” value turn out when `O=C1Nc2ccc(Cl)cc2C(c2ccccc2Cl)=NC1O` (stereo not shown) [Lorazepam] was run?
A: The value was less than 1%.

Q: `CCCCCn1cc(C(=O)Cc2ccccc2OC)c2ccccc21` [JWH-250] was tested. Which “% Cross-Reactivity” value did it give?
A: The value was less than 1%.

Q: For `CN[C@@H](C)Cc1ccccc1` [Methamphetamine HCl], which “% Cross-Reactivity” value is on record?
A: The value was less than 1%.

Q: For `Cl.Clc1cccc(N2CCNCC2)c1` [1-(3-Chlorophenyl)piperazine HCl], which “% Cross-Reactivity” value is on record?
A: The value was less than 1%.

Q: `O=C(CCCN1CCC(O)(c2ccc(Cl)cc2)CC1)c1ccc(F)cc1` [Haloperidol] was tested. Which “% Cross-reactivity” value did it give?
A: The value was less than 1%.

Q: With `COc1cc(CCN)cc(OC)c1OC` [Mescaline HCl] as the compound, how does the “% Cross-Reactivity” value read?
A: Its value is less than 1%.

Q: How did the “% Cross-reactivity” value turn out when `CCCC(NC)C(=O)c1ccc2c(c1)OCO2.Cl` (stereo not shown) [Pentylone HCl] was run?
A: Its value is 17.4%.

Q: And the “binding of antibodies of the invention (in words)” value?
A: The value was “able to bind”.

Q: With `CN1CCN(C(=O)OC2c3nccnc3C(=O)N2c2ccc(Cl)cn2)CC1` (stereo not shown) [Zopiclone] as the compound, how does the “% Cross-reactivity” value read?
A: Its value is less than 1%.

Q: For `C=CCN(CC=C)CCc1c[nH]c2ccc(OC)cc12` [N,N-diallyl-5-methoxytryptamine], which “% Cross-reactivity” value is on record?
A: The value was less than 1%.

Q: For `CC(C)Cc1ccc(C(C)C(=O)O)cc1` (stereo not shown) [Ibuprofen], which “% Cross-reactivity” value is on record?
A: Its value is less than 1%.

Same assay, conditions: Table 2, further cross-reactivity results; competition with Hapten-A HRP conjugate

Q: For `O=C(CN1CCCC1)c1ccccc1` [1-Phenyl-2(1-pyrrolidinyl)ethanone], which “% Cross-reactivity” value is on record?
A: Its value is less than 1%.

Q: `O=C(O)[C@H]1O[C@@H](OCC(Cl)(Cl)Cl)[C@H](O)[C@@H](O)[C@@H]1O` [Urochloralic acid] was tested. Which “% Cross-reactivity” value did it give?
A: The value was less than 1%.

Q: For `O=C(O)c1c[nH]c2ccccc12` [Indole-3-carboxylic acid], which “% Cross-reactivity” value is on record?
A: Its value is less than 1%.
